Results as given in patent US20220211860A1, “PEPTIDE DERIVATIVES AND CONJUGATES THEREOF FOR TREATING CANCER” (priority 2019, published 2022).
Read-outs that look alike come from different tables or passages of the source. Non-standard residues stand in square brackets, D forms with d. Residues, ends and D or L forms follow the SMILES beside them. *: point of attachment. Dolaproine = CO[C@@H]([C@@H]1CCCN1)[C@@H](C)C(=O)O; Dil = CC[C@H](C)[C@H](NC)[C@@H](CC(=O)O)OC; X1 = C[C@@H](N*)[C@@H](O)c1ccccc1; NMeV = CN[C@H](C(=O)O)C(C)C

Experiments:
MDA-MB-231 = settings: read-out: IC50 inhibition of cell growth
Experimental: (§2) The IC50 values (μM) were estimated from concentration-response curves using non-linear regression for inhibition of cell growth. Data are expressed as mean±SD from at least three independent experiments, each in triplicate. Statistical analysis was performed using a two-way ANOVA (* p<0.05, the IC50 for each compared with that of their corresponding parent peptide for the same cell line).

MCF-7 = settings: read-out: IC50 inhibition of cell growth
Experimental: as §2

SKOV-3 [1] = settings: read-out: IC50 inhibition of cell growth
Experimental: as §2

in vitro = settings: human, plasma, half-life (T1/2)
Experimental: As described herein in vitro metabolic stability in plasma is defined as the susceptibility of a chemical compound to biotransformation in plasma, and is expressed as in vitro half-life (T1/2).
(B) The metabolic stability of LHRH peptide derivatives examined in human plasma and quantified by Liquid Chromatography-Mass-Spectrometry (LC-MS) in a time dependent manner. […] Statistical analysis was performed using a one-way ANOVA followed by Dunnett's post-hoc test. Error bars are standard deviations (STDV), p<0.05, n=9 (3 independent experiments each performed in triplicate).

SK-BR-3 = settings: read-out: IC50 inhibition of cell growth
Experimental: as §2

mice [2] = assay: MTD of brentuximab vedotin in mice (comparison); format: in vivo
From the text: Therefore, the MTD was not reached at this dose. With the corresponding ADCs bearing MMAE the MTD has been considerably lower.

mice [3] = settings: cited from earlier work
α-tubulin polymerisation = assay: α-tubulin immunostaining in TNBC and normal breast cells; format: cell-based; settings: TNBC cells and normal breast cells, 1 µM, 18 h
Experimental: FIGS. 8A and 8B: The effect of MMAE and LD5-me-vc-PABC-MMAE (LM) on α-tubulin polymerization. (A) MDA-MB-231 (TNBC cell model) and normal breast cells (HMEC and MCF-10A) were treated with free MMAE and LM at 1 μM and PBS (control) followed by immunostaining of α-tubulin with primary and secondary antibodies. The α-tubulin signals were detected by LEICA SPE2 confocal LSM. (B) The α-tubulin signal intensity was measured by Fiji J software in normal breast cells (HMEC and MCF-10A) and MDA-MB-231. ****p<0.0001 is the significance in the signal intensity in each cell line treated with PBS and LM in comparison to MMAE-treated cells. ####p<0.0001 is the significance of the α-tubulin signal intensity in MDA-MB-231 cells treated with LM in comparison to MCF-10A and HMEC cells. […] Statistical analysis was made in Prism by two-way ANOVA followed by Tukey's multiple comparisons test. Error bars are standard deviations (STDV), n=8 (3 independent repeats).
The intracellular effects of MMAE on α-tubulin polymerisation were examined using α-tubulin immunostaining in TNBC cells (MDA-MB-231) and normal breast cells (MCF-10A and HMEC) treated with MMAE and MMAE conjugated with LD5 (LD5-mc-vc-PABC-MMAE). TNBC cells and normal breast cells were fixed after incubating with […] of MMAE and LD5-mc-vc-PABC-MMAE for 18 h along with PBS as a control. […]

SKOV-3 [4] = assay: MTT cytotoxicity assay, SKOV-3 (low LHRH-R expressing); format: cell-based; settings: SKOV-3, 72 h
Experimental: (§1) FIG. 4A to 4E: The cytotoxic activity of the peptide conjugate LD5-mc-vc-PABC-MMAE (LM) in comparison to MMAE was assessed in MDA-MB-231 (TNBC cell model) versus HMEC and MCF-10A (normal breast cells) and SKOV-3 (low LHRH-R expressing cell model), by MTT assay after incubating cells with compounds in serial dilution for 72 h. (A) The relative cellular viability was assessed in comparison to PBS-treated negative control group and IC50 value (nM) was calculated by non-linear regression (curve fit) for HMEC and MCF-10A (normal breast cells) and MDA-MB-231 (LHRH-R positive, TNBC cell model) and SKOV-3 (LHRH-R low expressing cells). (B) The cell viability in LD5-me-vc-PABC-MMAE (LM) was assessed in HMEC as normal breast cell line in comparison to MMAE by two-way ANOVA followed by Sidak's multiple comparisons test (****p<0.0001). (C) The cell viability in LD5-mc-vc-PABC-MMAE (LM) was assessed in MCF-10A as normal breast cell line in comparison to MMAE by two-way ANOVA followed by Sidak's multiple comparisons test (***p<0.001, **p<0.01, *p<0.05). (D) The cell viability in LD5-me-vc-PABC-MMAE (LM) was assessed in MDA-MB-231 (TNBC cell model) in comparison to MMAE by two-way ANOVA followed by Sidak's multiple comparisons test (****p<0.0001). […]

HMEC = assay: MTT cytotoxicity assay, HMEC normal breast cells; format: cell-based; settings: 72 h
Experimental: as §1

MCF-10A = assay: MTT cytotoxicity assay, MCF-10A normal breast cells; format: cell-based; settings: 72 h
Experimental: as §1

Compound | IC50 (MDA-MB-231) | IC50 (MCF-7) | IC50 (SKOV-3 [1]) | half-life (in vitro) | IC50 (SK-BR-3) | MTD expressed as equivalent of LHRHD-(mc-vc-PABC)-MMAE (mice [2]) | MTD (mice [3]) | α-tubulin formation compared to PBS control (α-tubulin polymerisation) | IC50 (SKOV-3 [4]) | IC50 (HMEC) | IC50 (MCF-10A)
CC(C)C[C@H](NC(=O)[C@@H](Cc1c[nH]c2ccccc12)NC(=O)[C@H](Cc1ccc(O)cc1)NC(=O)[C@H](CO)NC(=O)[C@H](Cc1c[nH]c2ccccc12)NC(=O)[C@H](Cc1c[nH]cn1)NC(=O)[C@@H]1CCC(=O)N1)C(=O)N[C@@H](CCCNC(=N)N)C(=O)N1CCC[C@H]1C(=O)NCC(N)=O [triptorelin, reference compound] | 68.1 ± 8.1 µM | 79.4 ± 5.3 µM | > 100 µM | ~0.317 h | 81.2 ± 7.2 µM |  |  |  |  |  | 
CC(C)C[C@H](NC(=O)[C@@H](CCCCN)NC(=O)[C@H](Cc1ccc(O)cc1)NC(=O)[C@H](CO)NC(=O)[C@H](Cc1c[nH]c2ccccc12)NC(=O)[C@H](Cc1cnc[nH]1)NC(=O)[C@@H]1CCC(=O)N1)C(=O)N[C@@H](CCCNC(=N)N)C(=O)N1CCC[C@H]1C(=O)NCC(N)=O [[k^6] LHRH, reference compound] |  |  |  | ~0.65 h |  |  |  |  |  |  | 
brentuximab vedotin: ADC in the clinic containing MMAE |  |  |  |  |  | approximately 70 mg/kg | 30 to 40 mg/kg |  |  |  | 
CCNC(=O)[C@@H]1CCCN1C(=O)[C@H](CCCNC(=N)N)NC(=O)[C@H](CC(C)C)NC(=O)[C@@H](CCCCN)NC(=O)[C@H](Cc1ccc(O)cc1)NC(=O)[C@H](CO)NC(=O)[C@H](Cc1c[nH]c2ccccc12)NC(=O)[C@H](Cc1c[nH]cn1)NC(=O)[C@@H]1CCC(=O)N1 [LD5, pGlu-His-Trp-Ser-Tyr-D-Lys-Leu-Arg-Pro-NHCH2CH3] | 38.1 ± 1.4 µM | 47.6 ± 5.4 µM | > 100 µM | ~6.08 h | 33.5 ± 2.5 µM |  |  |  |  |  | 
CCNC(=O)[C@@H]1CCCN1C(=O)[C@H](CCCNC(=N)N)NC(=O)[C@H](CC(C)C)NC(=O)[C@@H](CCCCNC(=O)CCCCCN)NC(=O)[C@H](Cc1ccc(O)cc1)NC(=O)[C@H](CO)NC(=O)[C@H](Cc1c[nH]c2ccccc12)NC(=O)[C@H](Cc1c[nH]cn1)NC(=O)[C@@H]1CCC(=O)N1 [LD6, pGlu-His-Trp-Ser-Tyr-D-Lys(Ahx)-Leu-Arg-Pro-NHCH2CH3] | 33.2 ± 2.5 µM | 49.2 ± 2.1 µM | > 100 µM | ~5.15 h | 29.7 ± 1.1 µM |  |  |  |  |  | 
CC[C@H](C)[C@@H]([C@@H](CC(=O)N1CCC[C@H]1[C@H](OC)[C@@H](C)C(=O)N[C@H](C)[C@@H](O)c1ccccc1)OC)N(C)C(=O)[C@@H](NC(=O)[C@@H](NC)C(C)C)C(C)C [MMAE, monomethyl auristatin E] (H-[NMeV]V[Dil][Dolaproine]-X1) |  |  |  |  |  |  |  | dramatic decrease in α-tubulin formation | 0.03 nM | 0.00011 µM | 0.00083 µM
CC(C)C[C@H](NC(=O)CNC(=O)[C@H](Cc1ccc(O)cc1)NC(=O)[C@H](CO)NC(=O)[C@H](Cc1c[nH]c2ccccc12)NC(=O)[C@H](Cc1c[nH]cn1)NC(=O)[C@@H]1CCC(=O)N1)C(=O)N[C@@H](CCCNC(=N)N)C(=O)N1CCC[C@H]1C(=O)NCC(N)=O [LHRH, pGlu-His-Trp-Ser-Tyr-Gly-Leu-Arg-Pro-Gly-NH2, reference compound] | > 100 µM | > 100 µM | > 100 µM | ~0.167 h | > 100 µM |  |  |  |  |  | 
CCNC(=O)[C@@H]1CCCN1C(=O)[C@H](CCCNC(=N)N)NC(=O)[C@H](CC(C)C)NC(=O)[C@@H](CCCCN)NC(=O)[C@H](Cc1ccc(O)cc1)NC(=O)[C@H](CO)NC(=O)[C@H](Cc1c[nH]c2ccccc12)NC(=O)[C@H](Cc1c[nH]cn1)NC(=O)[C@@H](N)CCC(N)=O [LD4, Gln-His-Trp-Ser-Tyr-D-Lys-Leu-Arg-Pro-NHCH2CH3] (H-QHWSY[dK]LRP-NHEt) | 36.2 ± 0.8 µM | 51.3 ± 3.1 µM | > 100 µM | ~4.28 h | 31.2 ± 4.8 µM |  |  |  |  |  | 
